Source: ChEMBL document CHEMBL1125639, “Synthesis and resolution of (+-)-7-chloro-8-hydroxy-1-(3'-iodophenyl)-3-methyl-2,3,4,5-tetrahydro- 1H-3- benzazepine (TISCH): a high affinity and selective iodinated ligand for CNS D1 dopamine receptor” (J Med Chem, 1991)

Species: Rattus norvegicus
Format: functional, Striatum, Membrane
Description: Inhibition constant of compound on R-(+)-125[I]-8 radioligand binding to rat striatal membranes

C=CCN1CC[C@]23c4c5ccc(O)c4O[C@H]2C(=O)CC[C@@]3(O)[C@H]1C5 [NALOXONE]
Ki: > 6 µM
